Assay [1] relates to HeLa cells. The experiment in a line: Proliferation assay, HeLa (Method 3). It counts as cell-based, human. As to conditions: Homo sapiens, HeLa, 96 h, 4 days, crystal violet; read-out: Inhibition of HeLa cell proliferation IC50. As to the method:
Cultivated tumour cells (HeLa, human cervical tumour cells, ATCC CCL-2; NCI-H460, human non-small cell lung carcinoma cells, ATCC HTB-177; A2780, human ovarian carcinoma cells, ECACC #93112519; DU 145, hormone-independent human prostate carcinoma cells, ATCC HTB-81; HeLa-MaTu-ADR, multidrug-resistant human cervical carcinoma cells, EPO-GmbH Berlin; Caco-2, human colorectal carcinoma cells, ATCC HTB-37; B16F10, mouse melanoma cells, ATCC CRL-6475) were plated at a density of 5,000 cells/well (DU145, HeLa-MaTu-ADR), 3,000 cells/well (NCI-H460, HeLa), 2,500 cells/well (A2780), 1,500 cells/well (Caco-2), or 1,000 cells/well (B16F10) in a 96-well multititer plate in 200 μL of their respective growth medium supplemented 10% fetal calf serum. After 24 hours, the cells of one plate (zero-point plate) were stained with crystal violet (see below), while the medium of the other plates was replaced by fresh culture medium (200 μl), to which the test substances were added in various concentrations (0 μM, as well as in the range of 0.001-10 μM; the final concentration of the solvent dimethyl sulfoxide was 0.5%). The cells were incubated for 4 days in the presence of test substances. Cell proliferation was determined by staining the cells with crystal violet: the cells were fixed by adding 20 μl/measuring point of an 11% glutaric aldehyde solution for 15 minutes at room temperature. After three washing cycles of the fixed cells with water, the plates were dried at room temperature. The cells were stained by adding 100 μl/measuring point of a 0.1% crystal violet solution (pH 3.0). After three washing cycles of the stained cells with water, the plates were dried at room temperature. The dye was dissolved by adding 100 μl/measuring point of a 10% acetic acid solution. The extinction was determined by photometry at a wavelength of 595 nm. The change of cell number, in percent, was calculated by normalization of the measured values to the extinction values of the zero-point plate (=0%) and the extinction of the untreated (0 μm) cells (=100%). The IC50 values (inhibitory concentration at 50% of maximal effect) were determined by means of a 4 parameter fit.

For assay [2], the target named is T1, CDK9/CycT1 (Homo sapiens, UniProt P50750).
T1 construct: Recombinant full-length His-tagged human CDK9 and CycT1; His; purchased Invitrogen PV4131; host or cells: insect cells
T1 sequence (P50750 whole entry): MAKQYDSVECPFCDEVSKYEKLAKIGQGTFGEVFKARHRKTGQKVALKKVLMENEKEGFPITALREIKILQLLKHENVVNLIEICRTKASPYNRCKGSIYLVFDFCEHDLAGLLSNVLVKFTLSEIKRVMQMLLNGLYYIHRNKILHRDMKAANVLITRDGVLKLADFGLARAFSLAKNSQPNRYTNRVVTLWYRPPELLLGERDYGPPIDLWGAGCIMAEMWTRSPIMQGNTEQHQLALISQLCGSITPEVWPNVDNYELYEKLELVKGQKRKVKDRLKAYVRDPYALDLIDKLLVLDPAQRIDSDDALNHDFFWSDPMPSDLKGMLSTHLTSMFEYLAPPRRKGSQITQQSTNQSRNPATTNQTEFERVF
T1 sequence (O60563 whole entry partner): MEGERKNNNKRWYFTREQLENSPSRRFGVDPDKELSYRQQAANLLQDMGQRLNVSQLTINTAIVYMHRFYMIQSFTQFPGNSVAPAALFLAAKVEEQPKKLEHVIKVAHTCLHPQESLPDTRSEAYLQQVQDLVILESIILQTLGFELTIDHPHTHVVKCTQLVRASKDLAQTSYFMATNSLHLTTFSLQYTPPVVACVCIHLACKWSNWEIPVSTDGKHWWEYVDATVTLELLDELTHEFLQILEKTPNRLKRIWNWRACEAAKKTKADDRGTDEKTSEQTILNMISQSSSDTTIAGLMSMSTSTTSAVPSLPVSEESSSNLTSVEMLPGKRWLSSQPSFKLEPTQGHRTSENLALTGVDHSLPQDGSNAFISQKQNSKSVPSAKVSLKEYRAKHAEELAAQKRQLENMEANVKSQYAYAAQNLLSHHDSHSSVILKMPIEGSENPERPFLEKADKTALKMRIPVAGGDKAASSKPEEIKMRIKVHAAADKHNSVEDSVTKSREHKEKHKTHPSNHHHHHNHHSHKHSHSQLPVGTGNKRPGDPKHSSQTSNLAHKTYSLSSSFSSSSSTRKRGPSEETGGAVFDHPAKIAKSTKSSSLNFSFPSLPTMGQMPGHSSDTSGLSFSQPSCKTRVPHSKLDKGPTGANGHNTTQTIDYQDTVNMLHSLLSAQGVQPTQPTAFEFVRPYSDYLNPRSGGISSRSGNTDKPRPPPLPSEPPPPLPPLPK
In words: CDK9/CycT1 high ATP kinase assay (Method 1b). It counts as biochemical. Particulars: 2 mM ATP. The procedure:
1b. CDK9/CycT1 High ATP Kinase Assay
CDK9/CycT1-inhibitory activity of compounds of the present invention at a high ATP concentration after preincubation of enzyme and test compounds was quantified employing the CDK9/CycT1 TR-FRET assay as described in the following paragraphs.
Recombinant full-length His-tagged human CDK9 and CycT1, expressed in insect cells and purified by Ni-NTA affinity chromatography, were purchase from Invitrogen (Cat. No PV4131). As substrate for the kinase reaction biotinylated peptide biotin-Ttds-YISPLKSPYKISEG (C-terminus in amid form) was used which can be purchased e.g. form the company JERINI peptide technologies (Berlin, Germany).
For the assay 50 nl of a 100 fold concentrated solution of the test compound in DMSO was pipetted into a black low volume 384 well microtiter plate (Greiner Bio-One, Frickenhausen, Germany), 2 μl of a solution of CDK9/CycT1 in aqueous assay buffer [50 mM Tris/HCl pH 8.0, 10 mM MgCl2, 1.0 mM dithiothreitol, 0.1 mM sodium ortho-vanadate, 0.01% (v/v) Nonidet-P40 (Sigma)] were added and the mixture was incubated for 15 min at 22° C. to allow pre-binding of the test compounds to the enzyme before the start of the kinase reaction. Then the kinase reaction was started by the addition of 3 μl of a solution of adenosine-tri-phosphate (ATP, 3.3 mM=>final conc. in the 5 μl assay volume is 2 mM) and substrate (1.67 μM=>final conc. in the 5 μl assay volume is 1 μM) in assay buffer and the resulting mixture was incubated for a reaction time of 25 min at 22° C. The concentration of CDK9/CycT1 was adjusted depending of the activity of the enzyme lot and was chosen appropriate to have the assay in the linear range, typical concentrations were in the range of 0.5 μg/ml. The reaction was stopped by the addition of 5 μl of a solution of TR-FRET detection reagents (0.2 μM streptavidine-XL665 [Cisbio Bioassays, Codolet, France] and 1 nM anti-RB(pSer807/pSer811)-antibody from BD Pharmingen [#558389] and 1.2 nM LANCE EU-W1024 labeled anti-mouse IgG antibody [Perkin-Elmer, product no. AD0077]) in an aqueous EDTA-solution (100 mM EDTA, 0.2% (w/v) bovine serum albumin in 100 mM HEPES/NaOH pH 7.0).
The resulting mixture was incubated 1 h at 22° C. to allow the formation of complex between the phosphorylated biotinylated peptide and the detection reagents. Subsequently the amount of phosphorylated substrate was evaluated by measurement of the resonance energy transfer from the Eu-chelate to the streptavidine-XL. Therefore, the fluorescence emissions at 620 nm and 665 nm after excitation at 350 nm was measured in a HTRF reader, e.g. a Rubystar (BMG Labtechnologies, Offenburg, Germany) or a Viewlux (Perkin-Elmer). The ratio of the emissions at 665 nm and at […] was taken as the measure for the amount of phosphorylated substrate. The data were normalised (enzyme reaction without inhibitor=0% inhibition, all other assay components but no enzyme=100% inhibition).

Among the data in patent US9650361B2, “N-(pyridin-2-yl)pyrimidin-4-amine derivatives containing a sulfoximine group” (BAYER PHARAM AKTIENGESELLSCHAFT, priority 2012, dated 2017) are IC50 values, retold here.

In the case of `CCS(=N)(=O)Cc1ccnc(Nc2cc(-c3ccc(F)cc3OC)ncn2)c1` (racemic) [Example 11, (rac)-N-{4-[(S-Ethylsulfonimidoyl)methyl]pyridin-2-yl}-6-(4-fluoro-2-methoxyphenyl)pyrimidin-4-amine], the IC50 was found to be 0.338 µM in assay [1] and 0.194 µM in assay [2].
